# Laboratory results taken from BindingDB's records for doi:10.7270/Q2PR7TCX (The Scripps Research Institute Molecular Screening Center, 2007).
# Structures can show the parent of a compound that is named as a salt.
# Biological target: Steroidogenic factor 1 (Homo sapiens, UniProt Q13285)
# Test: inhibition of SF-1 LBD-driven luciferase – cell-based, CHO-K1, Gal4-SF-1 LBD, luciferase luminescence, counter-screen for RORA inhibitor project, dose response (AID 611)
# Conditions: not given
# Steroidogenic factor 1, sequence (Q13285 whole entry, the tested form may be a part): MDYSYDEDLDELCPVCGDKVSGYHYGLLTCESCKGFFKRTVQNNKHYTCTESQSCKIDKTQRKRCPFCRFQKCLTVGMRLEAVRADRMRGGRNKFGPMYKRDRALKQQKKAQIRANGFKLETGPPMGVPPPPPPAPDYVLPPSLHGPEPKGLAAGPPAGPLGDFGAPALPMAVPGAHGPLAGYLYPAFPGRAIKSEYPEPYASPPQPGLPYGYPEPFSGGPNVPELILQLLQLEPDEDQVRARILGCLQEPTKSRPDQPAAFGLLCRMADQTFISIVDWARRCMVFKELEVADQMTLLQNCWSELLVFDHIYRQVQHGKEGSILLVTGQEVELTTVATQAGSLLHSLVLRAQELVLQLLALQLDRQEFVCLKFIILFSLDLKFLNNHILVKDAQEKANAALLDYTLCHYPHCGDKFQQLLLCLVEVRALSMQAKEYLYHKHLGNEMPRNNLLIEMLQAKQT
row,SMILES,IC50 [µM]
1,"Cc1oc2nc(SCC(=O)NCc3cccnc3)nc(N)c2c1C [2-(4-amino-5,6-dimethylfuro[2,3-d]pyrimidin-2-yl)sulfanyl-N-(pyridin-3-ylmethyl)acetamide]",> 99
2,"CC1CCN(c2nc3ccc(C(=O)O)cc3s2)CC1 [2-(4-methyl-1-piperidinyl)-1,3-benzothiazole-6-carboxylic acid]",0.329
3,"c1c2c(cc3sc(N4CCOCC4)nc13)OCCO2 [2-(4-morpholinyl)-6,7-dihydro-[1,4]dioxino[2,3-f][1,3]benzothiazole]",> 3.67
4,"CCOc1ccc(-c2nc(CSCC(=O)NCCN3CCOCC3)c(C)o2)cc1 [2-({[2-(4-ethoxyphenyl)-5-methyl-1,3-oxazol-4-yl]methyl}thio)-N-(2-morpholin-4-ylethyl)acetamide]",4
5,"CCc1ccc(-c2nc(CSCC(=O)NCCCN3CCCC3=O)c(C)o2)cc1 [2-({[2-(4-ethylphenyl)-5-methyl-1,3-oxazol-4-yl]methyl}thio)-N-[3-(2-oxopyrrolidin-1-yl)propyl]acetamide]",5.56
6,"COc1cc(CC(NC(C)=O)C(=O)NC2CCN(c3nc(C)cc(C)c3C#N)CC2)cc(OC)c1 (stereo not drawn) [2-Acetylamino-N-(3'-cyano-4',6'-dimethyl-3,4,5,6-tetrahydro-2H-[1,2']bipyridinyl-4-yl)-3-(3,5-dimethoxy-phenyl)-propionamide]",> 99
7,Nc1nc(Cl)nc2c1ncn2[C@H]1C[C@H](O)[C@@H](CO)O1 [2-CHLORO-2'-DEOXYADENOSINE],0.666
8,"CCCCNc1cc(C)nc(NCc2ccccc2)n1 [2-N-benzyl-4-N-butyl-6-methylpyrimidine-2,4-diamine]",9.37
9,"Cc1cc(C(=O)CN2C(=O)c3ccccc3S2(=O)=O)c(C)n1CC1CCCO1 (stereo not drawn) [2-[2-[2,5-dimethyl-1-(2-oxolanylmethyl)-3-pyrrolyl]-2-oxoethyl]-1,1-dioxo-1,2-benzothiazol-3-one]",5.61
10,"CN1CCN(C(=O)COc2ccc(-c3nc4ccccc4s3)cc2)CC1 [2-[4-(1,3-benzothiazol-2-yl)phenoxy]-1-(4-methyl-1-piperazinyl)ethanone]",5.28
11,CCOC(=O)CS(=O)(=O)c1nc(-c2ccc(F)cc2)cc(C(F)(F)F)n1 [2-[4-(4-fluorophenyl)-6-(trifluoromethyl)pyrimidin-2-yl]sulfonylacetic acid ethyl ester],8.95
12,CCOC(=O)CS(=O)(=O)c1nc(-c2ccccc2)cc(C(F)(F)F)n1 [2-[4-phenyl-6-(trifluoromethyl)pyrimidin-2-yl]sulfonylacetic acid ethyl ester],9.74
13,O=C(CSc1nnnn1C1CC2CCC1C2)Nc1ccnc2ccccc12 (stereo not drawn) [2-[(1-bicyclo[2.2.1]hept-2-yl-1H-tetrazol-5-yl)thio]-N-4-quinolinylacetamide],0.444
14,"N#Cc1c(NC(=O)CSc2nc(N)cc(=O)[nH]2)sc2c1CCCCCC2 [2-[(6-amino-4-oxo-1H-pyrimidin-2-yl)sulfanyl]-N-(3-cyano-4,5,6,7,8,9-hexahydrocycloocta[b]thiophen-2-yl)acetamide]",14.6
15,"COc1cccc(NC(=O)CSc2nnc(-c3cc(C)n(-c4ccccc4)c3C)o2)c1 [2-[[5-(2,5-dimethyl-1-phenyl-3-pyrrolyl)-1,3,4-oxadiazol-2-yl]thio]-N-(3-methoxyphenyl)acetamide]",3.76
16,"N#CC(C#N)=c1ccc2c(c1)NC1(CCCCC1)N=2 [2-spiro[3H-benzimidazole-2,1'-cyclohexane]-5-ylidenepropanedinitrile]",9.07
17,"COc1cc(OC)cc(-c2cc3nc(C)c(CCC(=O)O)c(C)n3n2)c1 [3-[2-(3,5-dimethoxyphenyl)-5,7-dimethyl-6-pyrazolo[1,5-a]pyrimidinyl]propanoic acid]",0.74
18,O=C(O)c1cccc(COc2ccc(CO)cc2Cl)c1 [3-[(2-chloro-4-methylol-phenoxy)methyl]benzoic acid],0.329
19,"Cc1cc(C(=O)Nc2cccc(C(=O)O)c2)oc1C [3-[(4,5-dimethyl-2-furoyl)amino]benzoic acid]",2.16
20,CCOc1ccc(OCc2cccc(C(=O)O)c2)cc1 [3-[(4-ethoxyphenoxy)methyl]benzoic acid],0.274
21,"Cc1cc(C)cc(Nc2ccc(C(=O)O)cc2N)c1 [3-amino-4-(3,5-dimethylanilino)benzoic acid]",> 99
22,"Cc1ccsc1C(=O)OCC(=O)c1cc(C)n(CC2CCCO2)c1C (stereo not drawn) [3-methyl-2-thiophenecarboxylic acid [2-[2,5-dimethyl-1-(2-oxolanylmethyl)-3-pyrrolyl]-2-oxoethyl] ester]",> 0.0453

# Further lines, results first:
row,IC50 [µM],SMILES
1,> 3.67,"COc1ccc(-c2cc3nc4n(c(=O)c3s2)CCC4)cc1 [2-(4-methoxyphenyl)-6,7-dihydropyrrolo[1,2-a]thieno[3,2-d]pyrimidin-9(5H)-one]"
2,7.8,"COc1ccc(-c2cc3nc4n(c(=O)c3s2)CCOC4)cc1 [2-(4-methoxyphenyl)-7,8-dihydro-5H-thieno[1,2]pyrimido[4,5-a][1,4]oxazin-10-one]"
3,0.259,"CCOc1ccc(-c2nc(CSCC(=O)NCc3ccco3)c(C)o2)cc1 [2-({[2-(4-ethoxyphenyl)-5-methyl-1,3-oxazol-4-yl]methyl}thio)-N-(2-furylmethyl)acetamide]"
4,> 99,"CN(C)c1nc(N)nc(CSc2nnnn2-c2cccc3ccccc23)n1 [2-N,2-N-dimethyl-6-[(1-naphthalen-1-yltetrazol-5-yl)sulfanylmethyl]-1,3,5-triazine-2,4-diamine]"
5,9.02,"Cc1cc(N2CCN(c3nc4ccccc4s3)CC2)n2ncnc2n1 [2-[4-(5-methyl-[1,2,4]triazolo[1,5-a]pyrimidin-7-yl)-1-piperazinyl]-1,3-benzothiazole]"
6,1.26,"c1ccc(-c2noc(-c3ccc4c(c3)OCO4)n2)nc1 [2-[5-(1,3-benzodioxol-5-yl)-1,2,4-oxadiazol-3-yl]pyridine]"
7,0.867,"c1ccc(-c2noc(-c3ccc4ccccc4c3)n2)nc1 [2-[5-(2-naphthyl)-1,2,4-oxadiazol-3-yl]pyridine]"
8,5.41,"Clc1cccc(-c2nc(-c3ccccn3)no2)c1 [2-[5-(3-Chloro-phenyl)-[1,2,4]oxadiazol-3-yl]-pyridine]"
9,2.67,"O=S1(=O)C=C(Sc2nc3ccccc3s2)c2ccccc21 [2-[(1,1-dioxido-1-benzothien-3-yl)thio]-1,3-benzothiazole]"
10,> 0.00503,"Cc1cc(C=c2sc3nc4ccccc4n3c2=O)c(C)n1-c1ccccn1 [2-[(2,5-dimethyl-1-pyridin-2-yl-pyrrol-3-yl)methylidene]-[1,3]thiazolo[3,2-a]benzimidazol-1-one]"
11,8.33,"CCOC(=O)c1c(N)sc(C(=O)Nc2ccc3c(c2)OCO3)c1C [2-amino-5-(1,3-benzodioxol-5-ylcarbamoyl)-4-methyl-thiophene-3-carboxylic acid ethyl ester]"
12,> 3.67,"CCc1nn2cc(-c3ccccc3)nc2s1 [2-ethyl-6-phenyl-imidazo[2,1-b][1,3,4]thiadiazole]"
13,6,CCCc1ccc(-c2ccc(F)c(N)c2)nc1 [2-fluoranyl-5-(5-propylpyridin-2-yl)aniline]
14,17.3,c1coc(CNc2ncnc3ccccc23)c1 [2-furfuryl(quinazolin-4-yl)amine;hydrochloride]
15,4.27,"c1ccc(-c2cn3c4c(sc3n2)CCCC4)cc1 [2-phenyl-5,6,7,8-tetrahydroimidazo[2,1-b][1,3]benzothiazole]"
16,> 33,"Cc1ccc(-c2nc3nc4ccccc4nc3n2Cc2ccco2)cc1 [3-(2-furanylmethyl)-2-(4-methylphenyl)imidazo[4,5-b]quinoxaline]"
17,8.46,"CCOc1ccc(-c2noc(CCC(=O)O)n2)cc1 [3-(3-p-phenetyl-1,2,4-oxadiazol-5-yl)propionic acid]"
18,2.62,"Cc1ccc(-c2cc3c(nn2)-c2ccccc2C3=O)cc1 [3-(4-methylphenyl)-5H-indeno[1,2-c]pyridazin-5-one]"
19,1.1,"CN(C)C(=O)CCc1nc(-c2ccc(C(C)(C)C)cc2)no1 [3-[3-(4-tert-butylphenyl)-1,2,4-oxadiazol-5-yl]-N,N-dimethyl-propanamide]"
20,0.0417,"CCNC(=O)CCc1nc(-c2ccc(C(C)(C)C)cc2)no1 [3-[3-(4-tert-butylphenyl)-1,2,4-oxadiazol-5-yl]-N-ethyl-propanamide]"
21,0.075,"CNC(=O)CCc1nc(-c2ccc(C(C)(C)C)cc2)no1 [3-[3-(4-tert-butylphenyl)-1,2,4-oxadiazol-5-yl]-N-methyl-propanamide]"
22,0.063,"CC(C)(C)c1ccc(-c2noc(CCC(N)=O)n2)cc1 [3-[3-(4-tert-butylphenyl)-1,2,4-oxadiazol-5-yl]propanamide]"
23,0.582,O=C(O)c1cccc(COc2ccccc2Cl)c1 [3-[(2-chloranylphenoxy)methyl]benzoic acid]
24,0.37,COc1ccc(OCc2cccc(C(=O)O)c2)cc1 [3-[(4-methoxyphenoxy)methyl]benzoic acid]
25,1.46,"O=C(c1ccc(Cl)cc1)N1CCCCC(Sc2nnc(-c3ccc4c(c3)OCO4)o2)C1=O (stereo not drawn) [3-[[5-(1,3-benzodioxol-5-yl)-1,3,4-oxadiazol-2-yl]sulfanyl]-1-(4-chlorobenzoyl)azepan-2-one]"

# Same assay, conditions: inactive by the depositor's call
row,SMILES,IC50 [µM]
1,"O=C(CSc1nnc(Cn2nnc3ccccc32)o1)N(Cc1ccc(F)cc1)c1ccccc1 [2-(5-Benzotriazol-1-ylmethyl-[1,3,4]oxadiazol-2-ylsulfanyl)-N-(4-fluoro-benzyl)-N-phenyl-acetamide]",11
2,O=C(O)CCSc1nc2ccccc2s1 [3-(Benzothiazol-2-ylsulfanyl)-propionic acid],19.1

# Results, then the compound that gave them:
row,IC50 [µM],SMILES
1,66.2,"Nc1ccc2oc(-c3cc(Br)ccc3Cl)nc2c1 [2-(5-bromanyl-2-chloranyl-phenyl)-1,3-benzoxazol-5-amine]"
2,13,"Cc1cc(C)nc(SC2=CS(=O)(=O)c3ccccc32)n1 [2-[(1,1-dioxido-1-benzothien-3-yl)thio]-4,6-dimethylpyrimidine]"
3,63.7,"Cc1cccc2cc3c(nc12)S/C(=N\CC1CCCO1)N(Cc1ccco1)C3 (stereo not drawn) [3-(2-furanylmethyl)-9-methyl-N-(2-oxolanylmethyl)-4H-[1,3]thiazino[6,5-b]quinolin-2-imine]"
4,12.4,"Cc1ccccc1NC(=O)N1CCCC(c2nc(-c3ccc(C(C)C)cc3)no2)C1 (stereo not drawn) [3-[3-(4-Isopropyl-phenyl)-[1,2,4]oxadiazol-5-yl]-piperidine-1-carboxylic acid o-tolylamide]"
